Cn1cnc([N+](=O)[O-])c1Cl
Settings | solubility (mole fraction)
in 1,4-dioxane, 283.15 K | 0.00714
in 1,4-dioxane, 285.65 K | 0.00797
in 1,4-dioxane, 288.15 K | 0.00882
in 1,4-dioxane, 290.65 K | 0.00986
in 1,4-dioxane, 293.15 K | 0.0109
in 1,4-dioxane, 295.65 K | 0.0119
in 1,4-dioxane, 298.15 K | 0.0129
in 1,4-dioxane, 300.65 K | 0.014
in 1,4-dioxane, 303.15 K | 0.0151
in 1,4-dioxane, 305.65 K | 0.0161
in 1,4-dioxane, 308.15 K | 0.0173
in 1,4-dioxane, 310.65 K | 0.0186
in 1,4-dioxane, 313.15 K | 0.0198
in 1,4-dioxane, 315.65 K | 0.021
in 1,4-dioxane, 318.15 K | 0.0225
in 2-butanone, 283.15 K | 0.0145
in 2-butanone, 285.65 K | 0.016
in 2-butanone, 288.15 K | 0.0176
in 2-butanone, 290.65 K | 0.0194
in 2-butanone, 293.15 K | 0.0214
in 2-butanone, 295.65 K | 0.0235
in 2-butanone, 298.15 K | 0.0259
in 2-butanone, 300.65 K | 0.0282
in 2-butanone, 303.15 K | 0.0308
in 2-butanone, 305.65 K | 0.0335
in 2-butanone, 308.15 K | 0.0368
in 2-butanone, 310.65 K | 0.04
in 2-butanone, 313.15 K | 0.0434
in 2-butanone, 315.65 K | 0.0474
in 2-butanone, 318.15 K | 0.0512
in NMP, 283.15 K | 0.157
in NMP, 285.65 K | 0.162
in NMP, 288.15 K | 0.168
in NMP, 290.65 K | 0.174
in NMP, 293.15 K | 0.181
in NMP, 295.65 K | 0.188
in NMP, 298.15 K | 0.195
in NMP, 300.65 K | 0.202
in NMP, 303.15 K | 0.209
in NMP, 305.65 K | 0.217
in NMP, 308.15 K | 0.224
in NMP, 310.65 K | 0.233
in NMP, 313.15 K | 0.242
in NMP, 315.65 K | 0.252
in NMP, 318.15 K | 0.261
in acetone, 283.15 K | 0.0181
in acetone, 285.65 K | 0.0202
in acetone, 288.15 K | 0.0222
in acetone, 290.65 K | 0.0248
in acetone, 293.15 K | 0.027
in acetone, 295.65 K | 0.0299
in acetone, 298.15 K | 0.0326
in acetone, 300.65 K | 0.0358
in acetone, 303.15 K | 0.0391
in acetone, 305.65 K | 0.0426
in acetone, 308.15 K | 0.0465
in acetone, 310.65 K | 0.0508
in acetone, 313.15 K | 0.0555
in acetone, 315.65 K | 0.06
in acetone, 318.15 K | 0.0656
in chloroform, 283.15 K | 0.0132
in chloroform, 285.65 K | 0.0142
in chloroform, 288.15 K | 0.0156
in chloroform, 290.65 K | 0.017
in chloroform, 293.15 K | 0.0185
in chloroform, 295.65 K | 0.0201
in chloroform, 298.15 K | 0.0219
in chloroform, 300.65 K | 0.0236
in chloroform, 303.15 K | 0.0255
in chloroform, 305.65 K | 0.0276
in chloroform, 308.15 K | 0.0298
in chloroform, 310.65 K | 0.0322
in chloroform, 313.15 K | 0.0345
in chloroform, 315.65 K | 0.0372
in chloroform, 318.15 K | 0.0399
in ethanol, 283.15 K | 0.00218
in ethanol, 285.65 K | 0.00235
in ethanol, 288.15 K | 0.00259
in ethanol, 290.65 K | 0.00283
in ethanol, 293.15 K | 0.00313
in ethanol, 295.65 K | 0.00347
in ethanol, 298.15 K | 0.00381
in ethanol, 300.65 K | 0.00417
in ethanol, 303.15 K | 0.00456
in ethanol, 305.65 K | 0.00497
in ethanol, 308.15 K | 0.00539
in ethanol, 310.65 K | 0.00587
in ethanol, 313.15 K | 0.00643
in ethanol, 315.65 K | 0.00705
in ethanol, 318.15 K | 0.00784
in ethyl acetate, 283.15 K | 0.00846
in ethyl acetate, 285.65 K | 0.00911
in ethyl acetate, 288.15 K | 0.00983
in ethyl acetate, 290.65 K | 0.0108
in ethyl acetate, 293.15 K | 0.0118
in ethyl acetate, 295.65 K | 0.0128
in ethyl acetate, 298.15 K | 0.0139
in ethyl acetate, 300.65 K | 0.015
in ethyl acetate, 303.15 K | 0.0162
in ethyl acetate, 305.65 K | 0.0177
in ethyl acetate, 308.15 K | 0.0191
in ethyl acetate, 310.65 K | 0.0204
in ethyl acetate, 313.15 K | 0.0218
in ethyl acetate, 315.65 K | 0.0235
in ethyl acetate, 318.15 K | 0.0253
in isopropanol, 283.15 K | 0.00108
in isopropanol, 285.65 K | 0.00125
in isopropanol, 288.15 K | 0.00142
in isopropanol, 290.65 K | 0.00158
in isopropanol, 293.15 K | 0.00176
in isopropanol, 295.65 K | 0.00195
in isopropanol, 298.15 K | 0.00219
in isopropanol, 300.65 K | 0.00247
in isopropanol, 303.15 K | 0.00278
in isopropanol, 305.65 K | 0.00313
in isopropanol, 308.15 K | 0.00352
in isopropanol, 310.65 K | 0.00408
in isopropanol, 313.15 K | 0.00468
in isopropanol, 315.65 K | 0.00533
in isopropanol, 318.15 K | 0.00593
in methanol, 283.15 K | 0.0028
in methanol, 285.65 K | 0.00316
in methanol, 288.15 K | 0.00349
in methanol, 290.65 K | 0.00385
in methanol, 293.15 K | 0.0042
in methanol, 295.65 K | 0.0046
in methanol, 298.15 K | 0.00506
in methanol, 300.65 K | 0.00554
in methanol, 303.15 K | 0.00603
in methanol, 305.65 K | 0.00651
in methanol, 308.15 K | 0.00699
in methanol, 310.65 K | 0.00756
in methanol, 313.15 K | 0.00811
in methanol, 315.65 K | 0.0087
in methanol, 318.15 K | 0.00936
in n-propanol, 283.15 K | 0.00152
in n-propanol, 285.65 K | 0.00168
in n-propanol, 288.15 K | 0.00187
in n-propanol, 290.65 K | 0.00208
in n-propanol, 293.15 K | 0.00232
in n-propanol, 295.65 K | 0.00258
in n-propanol, 298.15 K | 0.00282
in n-propanol, 300.65 K | 0.00308
in n-propanol, 303.15 K | 0.00342
in n-propanol, 305.65 K | 0.0038
in n-propanol, 308.15 K | 0.00418
in n-propanol, 310.65 K | 0.00468
in n-propanol, 313.15 K | 0.00522
in n-propanol, 315.65 K | 0.00592
in n-propanol, 318.15 K | 0.0066
in toluene, 283.15 K | 0.00194
in toluene, 285.65 K | 0.00208
in toluene, 288.15 K | 0.00228
in toluene, 290.65 K | 0.00248
in toluene, 293.15 K | 0.00272
in toluene, 295.65 K | 0.00298
in toluene, 298.15 K | 0.00325
in toluene, 300.65 K | 0.00358
in toluene, 303.15 K | 0.0039
in toluene, 305.65 K | 0.00428
in toluene, 308.15 K | 0.00468
in toluene, 310.65 K | 0.00518
in toluene, 313.15 K | 0.00568
in toluene, 315.65 K | 0.00622
in toluene, 318.15 K | 0.00683
